# According to patent US12629406B2, “Alterations in endothelin receptors following hemorrhage and resuscitation by centhaquin” (MIDWESTERN UNIVERSITY, priority 2018, dated 2026):
# How the values were obtained:
# [1] = test system: ETA receptors; assay: ETA receptor expression in tissues of hemorrhaged rats (western blot); format: in vivo, rat; details: for change in ETA receptor expression, abdominal aorta: compared to hemorrhaged rats with no treatment; for change in ETA receptor expression, renal medulla: compared to hemorrhagic shock
# Experimental: (§1) Induction of Hemorrhagic Shock. Hemorrhage was induced by withdrawing blood from the femoral artery at a rate of approximately 0.5 to 1 mL/min until a MAP of 35 mmHg was reached. This MAP was maintained for 30 min by further withdrawal of blood, if necessary. The hemorrhagic shock model used in the present study is a well-established rodent model of manageable pressure hemorrhage (Buehler et al. 2000; Gulati et al. 1997a; Gulati and Sen 1998). The volume of blood loss was about approximately 8.0 ml in each rat and was similar in various groups, amounting to approximately 40% of the total blood. Measured hematocrit levels were similar in various groups. The duration of blood withdrawal was approximately 15 minutes.
# (§2) Experimental design. To determine the resuscitative effect of centhaquin on cardiovascular system and plasma cytokines in hemorrhagic shock, rats were randomly divided into five groups, Group 1: Sham control (Non-hemorrhaged) (n=5), Group 2: Hemorrhage with no resuscitation (n=5); Group 3: Hemorrhage followed by resuscitation with 3% hypertonic saline (vehicle) (n=5); Group 4: Hemorrhage followed by resuscitation with vehicle plus centhaquin (0.017 mg/kg) (n=5); and Group 5: Hemorrhage followed by resuscitation with vehicle plus centhaquin (0.05 mg/kg) (n=5). Resuscitation was started 30 min after induction of hemorrhagic shock as an intravenous infusion (1 mL/min) through femoral vein using an infusion pump (Harvard Apparatus Infusion/Withdrawal Pump, Millis, MA). The blood samples, for biochemical estimations, were collected at 30 minutes of resuscitation and cardiovascular parameters were monitored till 60 minutes after which the animal was sacrificed. The volume of resuscitative solution was kept equal to the volume of blood loss.
# (§3) Estimation of ETA and ETB receptor expression. Expression of ETA and ETB receptors was determined using the western blotting technique (Briyal et al. 2015; Leonard and Gulati 2013) with some modifications. After completion of cardiovascular experiments animals were sacrificed and the organs (brain, heart, liver, lung, kidney and abdominal aorta) were immediately dissected out, flash frozen on dry ice, and stored at −80° C. for further analysis. The tissue was homogenized with 10×(w/v) RIPA lysis buffer (20 mM Tris-HCl pH 7.5, 120 mM NaCl, 1.0% TritonX-100, 1.0% sodium deoxycholate, 0.1% sodium dodecyl sulfate (SDS), 10% glycerol, 1 mM disodium ethylene diamine tetraacetic acid (EDTA), 1 mM ethylene glycol-bis(β-aminoethyl ether)-N,N,N′,N′-tetraacetic acid tetrasodium salt (EGTA), phosphatase inhibitors and Complete Mini Protease inhibitor cocktail tablet (Roche Diagnostics, Indianapolis, IN). Proteins were isolated in solubilized form and concentrations were measured by Folin-Ciocalteu's phenol reagent (Lowry et al. 1951). Solubilized protein (60 μg) was denatured in Laemmli sample buffer (Bio-Rad Laboratories, Hercules, CA), resolved on 10% sodium dodecyl sulfate-polyacrylamide gel electrophoresis (SDS-PAGE) and then transferred onto the nitrocellulose membrane followed by blocking the membrane with SuperBlock® Blocking Buffer in tris-buffered saline (TBS) (ThermoFisher Scientific, Hanover Park, IL). The membranes were washed three times with 1×TBS-Tween (TBST) and incubated with rabbit polyclonal anti-ETA receptor (ab85163, Abcam, Cambridge, MA, 1:1000) or anti-ETB receptor (ab117529, Abcam, Cambridge, MA, 1:1000) or mouse monoclonal anti-β-actin (a1978, Sigma-Aldrich, St. Louis, MO) antibodies, followed by horseradish peroxidase (HRP)-conjugated secondary antibodies goat anti-rabbit (sc2004, Santa Cruz Biotechnology, Dallas, TX, 1:2000) or goat anti-mouse (ab98693, Abcam, Cambridge, MA, 1:10,000) and visualized by SuperSignal® West Pico Chemiluminescent Substrate (ThermoFisher Scientific, Hanover Park, IL) using the ChemiDoc™ MP Imaging System (Bio-Rad Laboratories, Hercules, CA) and then analyzed using ImageJ (NIH) software.
# [2] = test system: ETB receptors; assay: ETB receptor expression in tissues of hemorrhaged rats (western blot); format: in vivo, rat; details: for change in ETB receptor expression, abdominal aorta / change in ETB receptor expression, kidney medulla: compared to untreated hemorrhaged rats
# Experimental: as §1, §2, §3
# [3] = rat fixed pressure blood loss, rabbit uncontrolled bleeding with trauma, pig massive blood loss; cited from earlier work
# [4] = test system: IL-6; assay: Plasma IL-6 in hemorrhaged rats (ELISA); format: in vivo, rat; details: p<0.01
# Experimental: as §1
# Experimental design. […] The blood samples, for biochemical estimations, were collected at 30 minutes of resuscitation and cardiovascular parameters were monitored till 60 minutes after which the animal was sacrificed. […]
# [5] = Renal blood flow of hemorrhaged rats subjected to 20 minutes of renal artery occlusion; format: in vivo, rat
# Experimental: Effect of centhaquin on renal blood perfusion of hemorrhaged rats. Hemorrhaged rats were resuscitated with vehicle (saline) or centhaquin low dose (0.01 mg/kg) or high dose (0.1 mg/kg). The effect of centhaquin on renal blood perfusion was measured before the induction of shock, 30 minutes after shock (hemorrhage) and 10, 30, 60, 90 and 120 minutes after resuscitation. […] This improved renal medullary blood perfusion is indicative of a use of centhaquin to prevent or treat injury to the kidneys (FIG. 5). […] A low dose of 0.02 mg/kg of centhaquin was also found to be effective in increasing the renal blood flow of hemorrhaged rats subjected to 20 minutes of renal artery occlusion.
smiles,measurement,setting,value
"Cc1cccc(N2CCN(CCc3ccc4ccccc4n3)CC2)c1 [centhaquin, 2-[2-(4-(3-methyphenyl)-1-piperazinyl)]ethyl-quinoline]","change in ETA receptor expression, abdominal aorta",[1]; centhaquin 0.017 mg/kg,−47.6%
same,"change in ETA receptor expression, renal medulla",[1]; centhaquin 0.017 mg/kg,−61.3%
same,"change in ETA receptor expression, abdominal aorta",[1]; centhaquin 0.05 mg/kg,−49.2%
same,"change in ETA receptor expression, renal medulla",[1]; centhaquin 0.05 mg/kg,−70.5%
same,"change in ETA expression, renal medulla (summary)",[1]; dose not given,−61%
same,"ETA receptor expression in brain, heart, liver, lungs and kidney cortex",[1]; hemorrhage and resuscitation,no change
same,"shock-induced increase (140%) in ETA expression, abdominal aorta","[1]; summary, also attenuated by saline",attenuated
same,"change in ETB receptor expression, abdominal aorta",[2]; centhaquin 0.017 mg/kg,79.7%
same,"change in ETB receptor expression, kidney medulla",[2]; centhaquin 0.017 mg/kg,76.6%
same,"change in ETB receptor expression, abdominal aorta",[2]; centhaquin 0.05 mg/kg,57.4%
same,"change in ETB receptor expression, kidney medulla",[2]; centhaquin 0.05 mg/kg,69.4%
same,"change in ETB expression, abdominal aorta (summary)",[2]; dose not given,79%
same,"ETB receptor expression in brain, heart, liver, lungs and kidney cortex",[2]; hemorrhage and resuscitation,no change
same,"shock-induced decrease (−34%) in ETB expression, renal medulla","[2]; summary, not attenuated by saline",completely attenuated
same,mortality following hypovolemic shock,[3],highly effective in reducing the mortality
same,plasma IL-6 level compared to hypertonic saline alone,[4],further increased
same,increasing the renal blood flow,"[5]; high dose 0.2 mg/kg, versus 0.02 mg/kg",did not have the same efficacy
same,increasing the renal blood flow,[5]; low dose 0.02 mg/kg,effective
